The values below come from ChEMBL document CHEMBL3853285, “Naturally Occurring Carbazole Alkaloids from Murraya koenigii as Potential Antidiabetic Agents” (J Nat Prod, 2016).

Calls of active or inactive are those of the source. No cut-off for these calls is given here.

Data set [1] can be described thus: Activation of Akt-dependent signaling pathway in rat L6 myotubes assessed as increase in myc-tagged GLUT4-mediated 2-[3H]-deoxyglucose uptake at 10 uM incubated for 16 hrs measured for 5 mins by beta scintillation counting method relative to control.
Data set [2] can be described thus: Activation of Akt-dependent signalling pathway in rat L6 myotubes assessed as increase in insulin-stimulated myc-tagged GLUT4-mediated 2-[3H]-deoxyglucose uptake at 25 uM incubated for 16 hrs followed by insulin stimulation for 20 mins measured for 5 mins by beta scintillation counting method relative to control.
Data set [3] can be described thus: Activation of Akt-dependent signalling pathway in rat L6 myotubes assessed as increase in myc-tagged GLUT4-mediated 2-[3H]-deoxyglucose uptake incubated for 16 hrs measured for 5 mins by beta scintillation counting.
The nature of data set [4]: Activation of Akt-dependent signalling pathway in rat L6 myotubes assessed as induction of myc-tagged GLUT4 translocation to cell surface at 10 uM incubated for 16 hrs by O-phenylenediamide based colorimetric assay relative to control.
A short description of data set [5]: Half life in rat liver microsomes in presence of NADPH by HPLC analysis. The class given is ADME. Particulars: for half-life: liver microsomes.
Data set [6] is described as follows: Activation of Akt-dependent signalling pathway in rat L6 myotubes assessed as induction of myc-tagged GLUT4 translocation to cell surface at 25 uM incubated for 16 hrs by O-phenylenediamide based colorimetric assay relative to control.
The subject of data set [7] is Rattus norvegicus. In words: Antidiabetic activity in overnight fasted STZ-induced albino Sprague-Dawley rat diabetic model assessed as decrease in blood glucose level at 100 mg/kg, po measured up to 24 hrs. The class given is functional.
A short description of data set [8]: Activation of Akt-dependent signalling pathway in rat L6 myotubes assessed as increase in myc-tagged GLUT4-mediated 2-[3H]-deoxyglucose uptake at 25 uM incubated for 16 hrs measured for 5 mins by beta scintillation counting relative to control.
The nature of data set [9]: Metabolic stability in rat liver microsomes assessed as drug degradation rate constant incubated for 90 mins by HPLC analysis. The class given is ADME. Particulars: 1.5 h. (Liver microsomes are a subcellular fraction often used to study metabolism.)
For data set [10], the system named is Rattus norvegicus. In words: Antidiabetic activity in overnight fasted STZ-induced albino Sprague-Dawley rat diabetic model assessed as decrease in blood glucose level at 100 mg/kg, po measured up to 5 hrs. The format is functional.
Data set [11] in a line: Metabolic stability in rat liver microsomes assessed as parent compound remaining after 90 mins in presence of NADPH by HPLC analysis. The class given is ADME. Particulars: for remaining at 1.5 h: liver microsomes, read-out: Stability.
Data set [12] can be described thus: AUC (0 to infinity) in Sprague-Dawley rat plasma at 100 mg/kg, po administered as single dose measured up to 48 hrs post dose by LC-MS/MS analysis. The format is ADME, organism-based. On the set-up: dose 100 mg/kg, route oral, time infinity.
Data set [13] can be described thus: Cmax in Sprague-Dawley rat plasma at 100 mg/kg, po administered as single dose measured up to 48 hrs post dose by LC-MS/MS analysis. Also on record: dose 100 mg/kg, route oral. The format is ADME, organism-based.
The nature of data set [14]: Tmax in Sprague-Dawley rat plasma at 100 mg/kg, po administered as single dose by LC-MS/MS analysis. The class given is ADME, organism-based.
The subject of data set [15] is Mus musculus. In words: Antidiabetic activity in leptin receptor deficient db/db C57BL/KSJ mouse assessed as decrease in postprandial blood glucose level at 10 mg/kg, po for 15 consecutive days measured on day 7 to 14 post dose. The class given is functional, organism-based.
Data set [16] concerns Mus musculus. In words: Antidiabetic activity in leptin receptor deficient db/db C57BL/KSJ mouse assessed as decrease in fasting blood glucose level administered for 15 consecutive days relative to control. The class given is functional.
Data set [17] relates to Mus musculus. Briefly: Antidiabetic activity in overnight fasted leptin receptor deficient db/db C57BL/KSJ mouse assessed as reduction in postprandial blood glucose AUC at 10 mg/kg, po administered on day 15 post glucose challenge measured up to 120 mins by oral glucose tolerance test relative to control. The format is functional.
The subject of data set [18] is Mus musculus. In words: Antidiabetic activity in overnight fasted leptin receptor deficient db/db C57BL/KSJ mouse assessed as reduction in postprandial blood glucose AUC at 10 mg/kg, po administered on day 10 post glucose challenge measured up to 120 mins by oral glucose tolerance test relative to control. The format is functional.
Data set [19] concerns Mus musculus. Briefly: Reversal of insulin resistance in leptin receptor deficient db/db C57BL/KSJ mouse assessed as improvement in HOMA index administered for 15 consecutive days relative to control. The class given is functional.
Data set [20] has as its system Mus musculus. In words: Reversal of insulin resistance in leptin receptor deficient db/db C57BL/KSJ mouse assessed as decrease in serum insulin level administered for 15 consecutive days relative to control. The class given is functional.
The species entered for data set [21] is Rattus norvegicus. Briefly: Induction of Akt phosphorylation at Ser-473 residue in rat L6 myotubes over-expressing myc-tagged GLUT4 at 50 uM incubated for 16 hrs followed by insulin stimulation for 20 mins by Western blot analysis. In general terms: In western blotting, separated proteins are transferred to a membrane and probed.
Data set [22] is filed under the species Rattus norvegicus. In words: Induction of Akt phosphorylation at Ser-473 residue in rat L6 myotubes over-expressing myc-tagged GLUT4 at 25 uM incubated for 16 hrs by Western blot analysis.
Data set [23] relates to Mus musculus. In words: Antidiabetic activity in overnight fasted leptin receptor deficient db/db C57BL/KSJ mouse assessed as reduction in postprandial blood glucose AUC at 30 mg/kg, po administered on day 15 post glucose challenge measured up to 120 mins by oral glucose tolerance test relative to control. The class given is functional.
Data set [24] has as its system Mus musculus. In words: Antidiabetic activity in leptin receptor deficient db/db C57BL/KSJ mouse assessed as decrease in postprandial blood glucose level at 30 mg/kg, po for 15 consecutive days measured on day 8 post dose. The format is functional, organism-based.
In data set [25] the test system is Mus musculus. In words: Antidiabetic activity in overnight fasted leptin receptor deficient db/db C57BL/KSJ mouse assessed as reduction in postprandial blood glucose AUC at 30 mg/kg, po administered on day 10 post glucose challenge measured up to 120 mins by oral glucose tolerance test relative to control. The format is functional.

Turning to `CN(CCOc1ccc(CC2SC(=O)NC2=O)cc1)c1ccccn1` (configuration not stated), the fold change (FC) in data set [1] came to 1.45; in data set [2], 2.75; in data set [4], 1.38. Further, the Activity result in data set [3] is “Dose-dependent effect”.
`CC(C)=CCC[C@]1(C)C=Cc2c(c(C)cc3c2[nH]c2ccccc23)O1`: the t1/2 in data set [5] (microsomes) amounted to 7.8 min. Further, the fold change (FC) stood at 1.41 in data set [6], 1.26 in [8] and 2.68 in [2]. In addition, the inhibition in vivo (commonly the share of the control response that was lost under treatment) at 100 mg/kg was 23.3% in the data set with Rattus norvegicus [7] and 19.3% in the data set on Rattus norvegicus [10]. Besides, in [9], the K worked out at 0.088 min⁻¹. Further, the Stability in [11] (microsomes, 1.5 h) was determined as 61%. Also, the Activity result in data set [3] is “Dose-dependent effect”.
As to `COc1ccc2[nH]c3c4c(c(C)cc3c2c1)OC(C)(C)C=C4` [KOENIMBINE], the half-life (usually how long it takes for the measured level to halve) in data set [5] was 2.21 h. Further, the figures for the fold change (FC) in data set [6], in data set [8] and in data set [2] were 1.44, 1.41 and 2.54, respectively. For the same compound, the inhibition in vivo at 100 mg/kg in the data set on Rattus norvegicus [7] is 19.8%; with Rattus norvegicus [10], 15.5%. Besides, in data set [12], the AUC(0-inf) (commonly total exposure, with the tail of the curve extrapolated) stood at 9.45 µM·h. Further, the Cmax (commonly the highest concentration seen after dosing) in data set [13] came to 1.81 µM. Besides, the Tmax (usually the time from dosing to the highest level) in [14] worked out at 0.83 h. Besides, the K in data set [9] was 0.005 min⁻¹. Moreover, in [11], the remaining at 1.5 h came out at 58%. For the same compound, in data set [3], the Activity result was “Dose-dependent effect”.
Take `COc1ccc2c(c1)[nH]c1c3c(c(C)cc12)OC(C)(C)C=C3`: the half-life in data set [5] is 2.83 h. Besides, the fold change (FC) is 1.33 in [6], 1.34 in data set [8] and 2.7 in data set [2]. Further, the inhibition in vivo at 100 mg/kg in the data set on Rattus norvegicus [7] was 30.3%; in the data set on Rattus norvegicus [10] it was 24.6%. For the same compound, the K in [9] was determined as 0.004 min⁻¹. Also, the remaining at 1.5 h in data set [11] came to 67%. In addition, the Activity entry in data set [3] was “Dose-dependent effect”.
On to `CCc1ccc(CCOc2ccc(CC3SC(=O)NC3=O)cc2)nc1` (configuration not stated) [PIOGLITAZONE], for which the inhibition entry with Mus musculus [15] was “Active”. In addition, the “inhibition (INH)” value is recorded as 62.4% with Mus musculus [16] and 32.3% with Mus musculus [20]. The inhibition in vivo at 10 mg/kg in the data set on Mus musculus [17] came out at 41.4%; with Mus musculus [18], 30.2%. Further, the Activity in the data set on Mus musculus [19] is reported as 74.6%.
For the compound `CN(C)C(=N)NC(=N)N` [METFORMIN], the inhibition in vivo at 100 mg/kg was 36% with Rattus norvegicus [7] and 25.9% with Rattus norvegicus [10].
In the case of `COc1cc2[nH]c3c4c(c(C)cc3c2cc1OC)OC(C)(C)C=C4`, the half-life in data set [5] came out at 3.11 h. Moreover, the result in the data set filed under Rattus norvegicus [21] and in the data set listed under Rattus norvegicus [22] was Active. Also, the fold change (FC) is 1.29 in [6], 1.42 in [8] and 2.41 in [2]. Moreover, the inhibition in vivo at 100 mg/kg amounted to 30% with Rattus norvegicus [7] and 22.5% with Rattus norvegicus [10]. In data set [12], this compound came in with an AUC(0-inf) of 23 µM·h. Further, the entries for the “inhibition (INH)” value with Mus musculus [16] and with Mus musculus [20] were 40.5% and 17.2%, respectively. This compound also registered a Cmax in data set [13] of 2.82 µM. Moreover, in data set [14], the Tmax was determined as 4 h. Besides, the K in data set [9] is 0.003 min⁻¹. The remaining at 1.5 h in data set [11] is 79%. Further, the inhibition in vivo at 30 mg/kg with Mus musculus [23] was 28.5%; with Mus musculus [25] it was 21.8%. Besides, the inhibition entry in the data set with Mus musculus [24] is “Active”. In addition, the Activity in the data set on Mus musculus [19] was 44.3%; in data set [3], “Dose-dependent effect”.
